Measurements as given in patent US5534515A, “Pyrrolopyridazines having gastrointestinal protective effects” (BYK Gulden Lomberg Chemische Fabrik GmbH, priority 1991, dated 1996).

Tested on: acid secretion of the perfused rat stomach stimulated by pentagastrin
Test: Investigation of the secretion-inhibiting effect on the perfused rat stomach
Type: in vivo, rat (CD rats, female)
Settings: for Maximum inhibition of acid secretion: N = 3, vs untreated control group, pentagastrin stimulation
Description: The effect of the compounds according to the invention after intravenous administration on the acid secretion of the perfused rat stomach stimulated by pentagastrin in vivo is shown in the following Table 2.
The abdomen of anesthesized rats (CD rats, female, 200-250 g; 1.5 g/kg i.m. of urethane) was opened after tracheotomy by a median upper abdominal incision and a PVC catheter was fixed transorally in the esophagus and a further one via the pylorus in such a way that the ends of the tubes just projected into the stomach lumen. The catheter leading from the pylorus led outwards via a side opening in the right-hand abdominal wall.
After thorough irrigation (about 50-100 ml), a flow of warm physiological NaCl solution at 37° C. was continuously passed through the stomach (0.5 ml/min, pH 6.8-6.9; Brun-Unita I). The pH (pH meter 632, glass electrode EA 147; .phi.=5 mm, Metrohm) was determined in the effluent collected (25 ml measuring cylinder) at 15 min intervals in each case and the secreted HCl by titration with a freshly prepared 0.01 N NaOH solution to pH 7 (Dosimat 655 Metrohm).
The stimulation of gastric secretion was effected by continuous infusion of 1 μg/kg (=1.65 ml/h) i.v. of pentagastrin (left femoral vein) about 30 min after the end of the operation (i.e. after determination of 2 preliminary fractions). The substances to be tested were administered intravenously (left jugular vein) in a 1 ml/kg liquid volume 60 min after the start of continuous pentagastrin infusion.
The body temperature of the animals was kept at a constant 37.8°-38° C. by infrared irradiation and heating pads (automatic, stepless control via rectal temperature sensor).
The maximum decrease in acid secretion (15 min fractions) of each treated group compared to that of the untreated control group (=100%) was used as a measure of the secretion-inhibiting effect.

**Q.** With `Cc1c(CO)c2cnnc(OCc3ccc(F)cc3)c2n1Cc1ccccc1` [Example 1a, 1-Benzyl-7-(4-fluorobenzyloxy)-3-hydroxymethyl-2-methylpyrrolo[2,3-d]pyridazine] as the compound, how does the ED50 (Rattus norvegicus, iv, dose (interpolated) which causes a maximum inhibition of HCl secretion by 50%, read-out: approx. ED50) read?
**A.** ~1.1 µmol/kg

**Q.** And the “Maximum inhibition of acid secretion” value (dose 0.3 μmol/kg i.v.)?
**A.** 22%

**Q.** And the “Maximum inhibition of acid secretion” value (dose 1.0 μmol/kg i.v.)?
**A.** 52%

**Q.** What about the “Maximum inhibition of acid secretion” value (dose 3.0 μmol/kg i.v.) of the same compound?
**A.** 70%

**Q.** And the “Maximum inhibition of acid secretion” value (dose 10.0 μmol/kg i.v.)?
**A.** 94%
